Assays:
C57BL/6 mice [1] = test: Glucose‐stimulated plasma insulin in mice; assay type: in vivo; conditions: peptide 25 nmol/kg with glucose 18 mmol/kg i.p., versus glucose control; n = 6
Description: Acute in vivo studies were conducted in groups (n = 6) of 4‐month‐old male C57BL/6 mice (Envigo, Huntington, UK). All mice were maintained on standard rodent chow (10% fat, 30% protein, and 60% carbohydrate; Trouw Nutrition, Northwich, UK), and drinking water provided ad libitum. Mice were housed individually and kept in a temperature‐controlled environment (22 ± 2°C), with a 12‐h light/dark cycle. Experiments were carried out in accordance with the UK Animal Scientific Procedures Act 1986 as well as being approved by Ulster University Animal Ethics Review Committee (AWERB) committee and protected by the UK Home Office Animal project license number PPL2902, approved on April 26, 2021. Acute effects of test peptides on food intake were tested in overnight (16 h) fasted mice. Briefly, fasted mice were administered an intraperitoneal (i.p.) injection of saline vehicle (0.9% (w/v) NaCl) alone or in combination with test peptides (each at 25, 75, or 200 nmol/kg bw) and cumulative food intake measured at regular intervals, to assess the pharmacodynamic profile of the test peptides. For food intake studies, mice were provided with preweighed rodent maintenance diet in their food hopper at t = 0 min, which was then re‐weighed at each timepoint with all due care taken to account for any wastage or crumbling of the food pellets. In this regard, the investigator was present at all times during the 180‐min test period to ensure accuracy and consistency in all measurements. Furthermore, effects of PP or related peptides (25 nmol/kg bw) on glucose homeostasis and insulin secretion were evaluated in overnight fasted mice following i.p. injection of glucose alone (18 mmol/kg bw) or in combination with PP peptides (each at 25 nmol/kg bw). […] Blood glucose was measured immediately using a hand‐held Ascencia Contour blood glucose meter (Bayer Healthcare, Newbury, Berkshire, UK). For plasma insulin, blood was collected in chilled fluoride/heparin‐coated microcentrifuge tubes (Sarstedt, Numbrecht, Germany) and centrifuged using a Beckman microcentrifuge (Beckman Instruments, Galway, Ireland) for 10 min at 12,000 rpm. Plasma was separated and stored at −20°C, until determination of plasma insulin by radioimmunoassay.[23]

C57BL/6 mice [2] = test: Acute food intake in overnight fasted mice; assay type: in vivo; conditions: n = 6
Description: Acute in vivo studies were conducted in groups (n = 6) of 4‐month‐old male C57BL/6 mice (Envigo, Huntington, UK). All mice were maintained on standard rodent chow (10% fat, 30% protein, and 60% carbohydrate; Trouw Nutrition, Northwich, UK), and drinking water provided ad libitum. Mice were housed individually and kept in a temperature‐controlled environment (22 ± 2°C), with a 12‐h light/dark cycle. Experiments were carried out in accordance with the UK Animal Scientific Procedures Act 1986 as well as being approved by Ulster University Animal Ethics Review Committee (AWERB) committee and protected by the UK Home Office Animal project license number PPL2902, approved on April 26, 2021. Acute effects of test peptides on food intake were tested in overnight (16 h) fasted mice. Briefly, fasted mice were administered an intraperitoneal (i.p.) injection of saline vehicle (0.9% (w/v) NaCl) alone or in combination with test peptides (each at 25, 75, or 200 nmol/kg bw) and cumulative food intake measured at regular intervals, to assess the pharmacodynamic profile of the test peptides. For food intake studies, mice were provided with preweighed rodent maintenance diet in their food hopper at t = 0 min, which was then re‐weighed at each timepoint with all due care taken to account for any wastage or crumbling of the food pellets. In this regard, the investigator was present at all times during the 180‐min test period to ensure accuracy and consistency in all measurements. Furthermore, effects of PP or related peptides (25 nmol/kg bw) on glucose homeostasis and insulin secretion were evaluated in overnight fasted mice following i.p. injection of glucose alone (18 mmol/kg bw) or in combination with PP peptides (each at 25 nmol/kg bw).

[3] = target: T1, purified human DPP‐4 enzyme (Homo sapiens, UniProt P27487); test: In vitro DPP‐4 degradation; assay type: in vitro ADME
T1 construct: purchased Sigma-Aldrich
T1 sequence (P27487 whole entry): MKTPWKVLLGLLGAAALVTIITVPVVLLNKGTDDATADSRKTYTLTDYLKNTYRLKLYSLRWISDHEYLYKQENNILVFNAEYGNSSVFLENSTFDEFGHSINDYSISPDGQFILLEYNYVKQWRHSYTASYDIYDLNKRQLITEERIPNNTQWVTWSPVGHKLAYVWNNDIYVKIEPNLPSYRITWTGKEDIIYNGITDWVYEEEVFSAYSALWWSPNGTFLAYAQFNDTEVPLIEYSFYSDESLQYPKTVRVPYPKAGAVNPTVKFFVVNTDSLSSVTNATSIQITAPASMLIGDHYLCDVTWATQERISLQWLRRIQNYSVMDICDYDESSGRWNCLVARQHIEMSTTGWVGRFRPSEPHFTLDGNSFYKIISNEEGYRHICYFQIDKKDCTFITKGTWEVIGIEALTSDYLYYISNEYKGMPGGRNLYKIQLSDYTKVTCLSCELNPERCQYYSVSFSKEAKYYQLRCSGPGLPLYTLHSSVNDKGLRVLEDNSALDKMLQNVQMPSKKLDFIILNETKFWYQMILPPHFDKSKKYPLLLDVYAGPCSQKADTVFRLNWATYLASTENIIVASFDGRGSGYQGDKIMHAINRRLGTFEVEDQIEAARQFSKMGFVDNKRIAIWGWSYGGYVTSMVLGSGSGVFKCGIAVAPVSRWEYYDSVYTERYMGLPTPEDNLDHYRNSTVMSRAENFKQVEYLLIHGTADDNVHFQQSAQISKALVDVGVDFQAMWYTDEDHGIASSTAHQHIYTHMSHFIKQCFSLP
Description: PP peptides (50 μg) were incubated at 37°C for 0–8 h with 5 μL of purified human DPP‐4 enzyme (0.01 U/L, Sigma‐Aldrich, Gillingham, UK). Degradation reactions were terminated via the addition of 10 μL 10% (v/v) trifluoroacetic acid/water solution. Reaction mixes were separated by reverse phase rp‐HPLC using a Phenomenex C‐18 analytical column (250 × 4.6 mm^2) with UV absorbance detection at 214 nm (ThermoQuest SpectraSystem UV2000 detector). HPLC peaks of interest were collected and analyzed by MALDI‐TOF MS on a Perseptive Biosystems Voyager‐DE Biospectrometry (Hertfordshire, UK).

SMILES: CC[C@H](C)[C@H](NC(=O)[C@H](Cc1ccc(O)cc1)NC(=O)[C@H](CCCNC(=N)N)NC(=O)[C@H](CCCNC(=N)N)NC(=O)[C@H](CC(C)C)NC(=O)[C@H](CC(=O)O)NC(=O)[C@H](C)NC(=O)[C@H](C)NC(=O)[C@H](Cc1ccc(O)cc1)NC(=O)[C@H](CCC(N)=O)NC(=O)[C@H](C)NC(=O)[C@H](CCSC)NC(=O)[C@H](CCC(N)=O)NC(=O)[C@H](CCC(=O)O)NC(=O)[C@@H]1CCCN1C(=O)[C@@H](NC(=O)[C@H](C)NC(=O)[C@H](CC(N)=O)NC(=O)[C@H](CC(=O)O)NC(=O)CNC(=O)[C@@H]1CCCN1C(=O)[C@H](Cc1ccc(O)cc1)NC(=O)[C@@H](NC(=O)[C@@H]1CCCN1C(=O)[C@H](CCC(=O)O)NC(=O)[C@H](CC(C)C)NC(=O)[C@@H]1CCCN1C(=O)[C@H](C)N)C(C)C)[C@@H](C)O)C(=O)N[C@@H](CC(N)=O)C(=O)N[C@@H](CCSC)C(=O)N[C@@H](CC(C)C)C(=O)N[C@H](C(=O)N[C@@H](CCCNC(=N)N)C(=O)N1CCC[C@H]1C(=O)N[C@@H](CCCNC(=N)N)C(=O)N[C@@H](Cc1ccc(O)cc1)C(N)=O)[C@@H](C)O [PP, Pancreatic polypeptide]
- glucose‐induced insulin secretion (plasma insulin) (C57BL/6 mice [1]): slightly decreasing (p = <0.05 to 0.01)
- cumulative food intake (appetite suppression) (C57BL/6 mice [2]; 25 nmol/kg i.p., overnight (16 h) fasted mice, up to 180 min, versus saline): particularly effective
- food intake in combination with CCK‐8 (C57BL/6 mice [2]; PP peptide 25 nmol/kg with CCK‐8 25 nmol/kg i.p., fasted mice, compared with CCK‐8): significantly (p = <0.05 to 0.01) augment this effect from 90 min onwards
- food intake in combination with exendin‐4 (C57BL/6 mice [2]; PP peptide 25 nmol/kg with exendin‐4 0.25 nmol/kg i.p., fasted mice): additive appetite suppressive actions
- DPP‐4 mediated degradation, outcome in words [3]: N‐terminal di‐peptide cleavage to yield PP(3–36)

Reference: PMC11627468, “Novel enzyme‐resistant pancreatic polypeptide analogs evoke pancreatic beta‐cell rest, enhance islet cell turnover, and inhibit food intake in mice” (Biofactors (Oxford, England), 2024)
